Assay results: US10112922B2, “Inhibitor of bruton's tyrosine kinase” (Centaurus BioPharma Co., Ltd., priority 2014, dated 2018)

How the values were obtained:
ITK kinase = ITK kinase (Homo sapiens (Human), UniProt Q08881); test: ITK kinase enzymatic assay (same HTRF method as BTK); format: biochemical; details: Table 1; read-out: Itk IC50
Procedure: (§1) The compounds were gradiently diluted 3 folds starting from 1 mM with 100% DMSO (totally 11 concentrations). 4 μL of each sample with a different concentration was added into 96 μL of reaction buffer (50 mM HEPES, pH 7.4, 10 mM MgCl2, 1 mM EGTA, 0.01% Tween-20, 0.005% BAS, 2 mM DTT). […] The mixture was centrifuged to mix well, followed by adding 2.5 μL of a mixture of ATP (final concentration designated as Km) and TK petide (HTRF® KinEASE™-TK, Cisbio) to initiate the reaction (total reaction volume being 10 μL). […] The enzyme activity for each compound was determined at 11 concentrations, and IC50 values were obtained by GraFit Software 6.0 (Erithacus Software).
In vitro activity in inhibiting ITK kinase was determined similar to that in respect of BTK kinase.

Btk kinase = Btk kinase (Homo sapiens (Human), UniProt Q06187); test: Btk kinase enzymatic activity assay (HTRF); format: biochemical; details: Table 1; read-out: Btk IC50
Procedure: The half inhibition concentrations (IC50 values) of the compounds disclosed herein on Btk were determined at both enzymatic level and cellular level: the ability of the compounds to inhibit the activity of Btk kinase was determined in an enzymtic activity assay, and the inhibitory effect of the compounds on BCR-induced calcium flux in cells was determined in a cellular function assay.
as §1

OCI-LY-10 cells = test: Efficacy in subcutaneously xenografted tumor model in mice; format: in vivo, CB-17 SCID mice
Procedure: SPF grade female CB-17 SCID mice (4-5 week) were used. 0.1 ml of OCI-LY-10 cells suspended in serum-free medium (containing 5×10^6 cells, 30% Matrigel) were injected subcutaneously in both the left and the right flanks of mice. Mice were grouped and numbered when the average tumor volumes were more than 100 mm3, and the body weights and tumor volumes were determined. The mice were randomly grouped according to tumor volumes, and appropriate adjustments were made so that the average body weight in each group is on the same level. Animals were dosed orally on the same day when they were grouped, and body weights and tumor volumes were measured twice a week. Relative tumor growth (T/C) and Tumor growth inhibition (TGI) were the major test indeces.
The equation for calculating the tumor volume is V=0.5×a×b^2, wherein v is the tumor volume, a and b are the length and the width of the tumor, respectively. The relative tumor volume (RTV) was calculated according to the tumor volume with the equation RTV=Vt/V0, wherein V0 was the tumor volume at the time when the animals were grouped, and Vt was the tumor volume at indicated time points. The equation for calculating the relative tumor proliferation rate was T/C (%)=TRTV/CRTV*100%. (TRTV was the RTV of treated group, and CRTV was the RTV of control group).
The equation for calculating the tumor growth inhibition rate was TGI (%)=(1−(tumor volume of the treated group−tumor volume of the treated group at the time when the animals were grouped)/(tumor volume of the control group−tumor volume of the control group at the time when the animals were grouped))*100%.

[1] = Toxicity test in mice (7-day oral administration); format: in vivo, CD-1 (ICR) mice; details: for Average body weight of mice / Changes (%) in mice body weight in treated group over control group: 1000 mg/kg oral once a day
From the text: Body weights and conditions of mice were monitored every day, during which all mice were not fasting.

[2] = 1000 mg/kg oral once a day for 7 days

Chain of Btk kinase (Q06187 whole entry): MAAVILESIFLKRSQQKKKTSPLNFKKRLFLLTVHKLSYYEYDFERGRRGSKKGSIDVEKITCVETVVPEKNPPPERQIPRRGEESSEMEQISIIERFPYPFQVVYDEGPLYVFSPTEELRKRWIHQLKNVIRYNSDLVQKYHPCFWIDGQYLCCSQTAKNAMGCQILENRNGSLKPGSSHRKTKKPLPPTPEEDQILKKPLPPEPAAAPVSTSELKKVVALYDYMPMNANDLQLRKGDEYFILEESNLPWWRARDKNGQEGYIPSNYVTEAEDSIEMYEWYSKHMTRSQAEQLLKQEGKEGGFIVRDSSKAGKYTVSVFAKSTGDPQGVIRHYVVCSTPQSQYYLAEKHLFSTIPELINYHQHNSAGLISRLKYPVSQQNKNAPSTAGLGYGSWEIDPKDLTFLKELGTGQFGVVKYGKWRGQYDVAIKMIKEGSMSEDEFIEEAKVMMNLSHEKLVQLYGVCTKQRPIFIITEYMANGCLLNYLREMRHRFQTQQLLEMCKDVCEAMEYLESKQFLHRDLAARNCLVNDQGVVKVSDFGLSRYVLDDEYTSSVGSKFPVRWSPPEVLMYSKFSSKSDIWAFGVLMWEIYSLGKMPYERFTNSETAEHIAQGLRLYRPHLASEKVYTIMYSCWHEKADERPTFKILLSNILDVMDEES
Chain of ITK kinase (Q08881 whole entry): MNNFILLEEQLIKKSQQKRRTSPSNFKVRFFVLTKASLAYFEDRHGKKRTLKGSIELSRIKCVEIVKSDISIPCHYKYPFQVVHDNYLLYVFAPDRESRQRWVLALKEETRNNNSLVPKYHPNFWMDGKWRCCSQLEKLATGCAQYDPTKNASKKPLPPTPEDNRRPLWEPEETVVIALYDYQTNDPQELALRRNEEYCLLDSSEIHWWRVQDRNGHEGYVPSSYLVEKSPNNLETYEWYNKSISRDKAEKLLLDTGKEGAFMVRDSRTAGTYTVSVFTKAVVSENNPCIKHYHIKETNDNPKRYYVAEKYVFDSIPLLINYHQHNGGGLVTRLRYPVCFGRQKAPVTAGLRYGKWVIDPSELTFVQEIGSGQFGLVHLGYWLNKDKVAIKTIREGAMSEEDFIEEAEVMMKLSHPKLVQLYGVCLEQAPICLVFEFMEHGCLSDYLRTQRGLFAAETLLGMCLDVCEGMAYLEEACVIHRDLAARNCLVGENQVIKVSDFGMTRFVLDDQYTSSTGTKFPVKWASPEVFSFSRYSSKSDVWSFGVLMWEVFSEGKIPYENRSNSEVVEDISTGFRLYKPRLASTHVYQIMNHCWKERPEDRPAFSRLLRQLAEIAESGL

C=CS(=O)(=O)N1CCC[C@@H](n2nc(-c3ccc(Oc4ccccc4)cc3)c(C(N)=O)c2N)C1 [Example 1, (R)-5-amino-3-(4-phenoxyphenyl)-1-(1-(vinylsulfonyl)piperidin-3-yl)-1H-pyrazole-4-carboxamide]
IC50 (ITK kinase): < 100 nM | IC50 (Btk kinase): < 100 nM

C=CS(=O)(=O)N1CC[C@@H](n2nc(-c3ccc(Oc4ccccc4)cc3)c(C(N)=O)c2N)C1 [Example 2, (R)-5-amino-3-(4-phenoxyphenyl)-1-(1-(vinylsulfonyl)pyrrolidin-3-yl)-1H-pyrazole-4-carboxamide]
IC50 (ITK kinase): < 100 nM | IC50 (Btk kinase): < 100 nM

CN(C)C/C=C/C(=O)N1CC[C@@H](n2nc(-c3ccc(Oc4ccccc4)cc3)c(C(N)=O)c2N)C1 [Example 3, (R,E)-5-amino-1-(1-(4-(dimethylamino)but-2-enoyl)pyrrolidin-3-yl)-3-(4-phenoxyphenyl)-1H-pyrazole-4-carboxamide]
IC50 (ITK kinase): > 1000 nM | IC50 (Btk kinase): < 100 nM

NC(=O)c1c(-c2ccc(Oc3ccccc3)cc2)nn([C@@H]2CCN(C(=O)/C=C/CN3CCOCC3)C2)c1N [Example 4, (R,E)-5-amino-1-(1-(4-morpholinobut-2-enoyl)pyrrolidin-3-yl)-3-(4-phenoxyphenyl)-1H-pyrazole-4-carboxamide]
IC50 (ITK kinase): > 1000 nM | IC50 (Btk kinase): < 100 nM

NC(=O)c1c(-c2ccc(Oc3ccccc3)cc2)nn([C@@H]2CCN(C(=O)/C=C/CN3CCCCC3)C2)c1N [Example 5, (R,E)-5-amino-3-(4-phenoxyphenyl)-1-(1-(4-(piperidin-1-yl)but-2-enoyl)pyrrolidin-3-yl)-1H-pyrazole-4-carboxamide]
IC50 (ITK kinase): > 1000 nM | IC50 (Btk kinase): < 100 nM

NC(=O)c1c(-c2ccc(Oc3ccccc3)cc2)nn([C@@H]2CCN(C(=O)/C=C/CN3CCCC3)C2)c1N [Example 6, (R,E)-5-amino-3-(4-phenoxyphenyl)-1-(1-(4-(pyrrolidin-1-yl)but-2-enoyl)pyrrolidin-3-yl)-1H-pyrazole-4-carboxamide]
IC50 (ITK kinase): > 1000 nM | IC50 (Btk kinase): < 100 nM

C/C=C/C(=O)N1CC[C@@H](n2nc(-c3ccc(Oc4ccccc4)cc3)c(C(N)=O)c2N)C1 [Example 7, (R,E)-5-amino-1-(1-(but-2-enoyl)pyrrolidin-3-yl)-3-(4-phenoxyphenyl)-1H-pyrazole-4-carboxamide]
IC50 (ITK kinase): > 1000 nM | IC50 (Btk kinase): < 100 nM | TGI (%) Day 3 (OCI-LY-10 cells; 100 mg/kg PO QD): 33.27% | TGI (%) Day 8 (OCI-LY-10 cells; 100 mg/kg PO QD): 19.00% | TGI (%) Day 11 (OCI-LY-10 cells; 100 mg/kg PO QD): 11.28%

CC(C)/C=C/C(=O)N1CC[C@@H](n2nc(-c3ccc(Oc4ccccc4)cc3)c(C(N)=O)c2N)C1 [Example 8, (R,E)-5-amino-1-(1-(4-methylpent-2-enoyl)pyrrolidin-3-yl)-3-(4-phenoxyphenyl)-1H-pyrazole-4-carboxamide]
IC50 (ITK kinase): > 1000 nM | IC50 (Btk kinase): < 100 nM

NC(=O)c1c(-c2ccc(Oc3ccccc3)cc2)nn([C@@H]2CCN(C/C=C/C(=O)O)C2)c1N [Example 10, (R,E)-4-(3-(5-amino-4-carbamoyl-3-(4-phenoxyphenyl)-1H-pyrazol-1-yl)pyrrolidin-1-yl)but-2-enoic Acid]
IC50 (ITK kinase): > 1000 nM | IC50 (Btk kinase): < 100 nM

NC(=O)c1c(-c2ccc(Oc3ccccc3)cc2)nn([C@@H]2CCN(C(=O)/C=C\C(=O)O)C2)c1N [Example 11, (R,Z)-4-(3-(5-amino-4-carbamoyl-3-(4-phenoxyphenyl)-1H-pyrazol-1-yl)pyrrolidin-1-yl)-4-oxobut-2-enoic Acid]
IC50 (ITK kinase): > 1000 nM | IC50 (Btk kinase): < 100 nM

NC(=O)c1c(-c2ccc(Oc3ccccc3)cc2)nn([C@@H]2CCN(C(=O)/C=C/CBr)C2)c1N [Example 12, (R,E)-5-amino-1-(1-(4-bromobut-2-enoyl)pyrrolidin-3-yl)-3-(4-phenoxyphenyl)-1H-pyrazole-4-carboxamide]
IC50 (ITK kinase): > 1000 nM | IC50 (Btk kinase): < 100 nM

CC(=O)OC/C=C/C(=O)N1CC[C@@H](n2nc(-c3ccc(Oc4ccccc4)cc3)c(C(N)=O)c2N)C1 [Example 13, (R,E)-4-(3-(5-amino-4-carbamoyl-3-(4-phenoxyphenyl)-1H-pyrazol-1-yl)pyrrolidin-1-yl)-4-oxobut-2-en-1-yl acetate]
IC50 (ITK kinase): > 1000 nM | IC50 (Btk kinase): < 100 nM

CS(=O)(=O)NC/C=C/C(=O)N1CC[C@@H](n2nc(-c3ccc(Oc4ccccc4)cc3)c(C(N)=O)c2N)C1 [Example 14, (R,E)-5-amino-1-(1-(4-(methylsulfonamido)but-2-enoyl)pyrrolidin-3-yl)-3-(4-phenoxyphenyl)-1H-pyrazole-4-carboxamide]
IC50 (ITK kinase): > 1000 nM | IC50 (Btk kinase): < 100 nM

NC(=O)c1c(-c2ccc(Oc3ccccc3)cc2)nn([C@@H]2CCN(C(=O)/C=C/CO)C2)c1N [Example 15, (R,E)-5-amino-1-(1-(4-hydroxybut-2-enoyl)pyrrolidin-3-yl)-3-(4-phenoxyphenyl)-1H-pyrazole-4-carboxamide]
IC50 (ITK kinase): > 1000 nM | IC50 (Btk kinase): < 100 nM

CC#CC(=O)N1CC[C@@H](n2nc(-c3ccc(Oc4ccccc4)cc3)c(C(N)=O)c2N)C1 [Example 16, (R)-5-amino-1-(1-(but-2-ynoyl)pyrrolidin-3-yl)-3-(4-phenoxyphenyl)-1H-pyrazole-4-carboxamide]
IC50 (ITK kinase): > 1000 nM | difference in body weight change from control group [1, 2]: < 2% | toxicity [1, 2]: no toxicity | Average body weight of mice ([1]; Day 1): 24.8 g | Changes (%) in mice body weight in treated group over control group ([1]; Day 1): 100.0% | Average body weight of mice ([1]; Day 2): 25.3 g | Changes (%) in mice body weight in treated group over control group ([1]; Day 2): 101.1% | Average body weight of mice ([1]; Day 3): 25.7 g | Changes (%) in mice body weight in treated group over control group ([1]; Day 3): 100.8% | Average body weight of mice ([1]; Day 4): 25.9 g | Changes (%) in mice body weight in treated group over control group ([1]; Day 4): 100.6% | Average body weight of mice ([1]; Day 5): 26.3 g | Changes (%) in mice body weight in treated group over control group ([1]; Day 5): 99.8% | Average body weight of mice ([1]; Day 6): 26.5 g | Changes (%) in mice body weight in treated group over control group ([1]; Day 6): 98.5% | Average body weight of mice ([1]; Day 7): 26.9 g | Changes (%) in mice body weight in treated group over control group ([1]; Day 7): 98.9% | IC50 (Btk kinase): < 100 nM | TGI (%) Day 3 (OCI-LY-10 cells; 50 mg/kg PO BID): 35.97% | TGI (%) Day 8 (OCI-LY-10 cells; 50 mg/kg PO BID): 32.25% | TGI (%) Day 11 (OCI-LY-10 cells; 50 mg/kg PO BID): 44.47% | TGI (%) Day 3 (OCI-LY-10 cells; 100 mg/kg PO QD): 14.97% | TGI (%) Day 8 (OCI-LY-10 cells; 100 mg/kg PO QD): 19.53% | TGI (%) Day 11 (OCI-LY-10 cells; 100 mg/kg PO QD): 29.98%

C#CC(=O)N1CC[C@@H](n2nc(-c3ccc(Oc4ccccc4)cc3)c(C(N)=O)c2N)C1 [Example 17, (R)-5-amino-3-(4-phenoxyphenyl)-1-(1-propioloylpyrrolidin-3-yl)-1H-pyrazole-4-carboxamide]
IC50 (ITK kinase): < 100 nM | IC50 (Btk kinase): < 100 nM

CC#CC(=O)N[C@H]1CC[C@@H](n2nc(-c3ccc(Oc4ccccc4)cc3)c(C(N)=O)c2N)CC1 [Example 18, 5-amino-1-((1s,4s)-4-(but-2-ynamido)cyclohexyl)-3-(4-phenoxyphenyl)-1H-pyrazole-4-carboxamide]
IC50 (ITK kinase): > 1000 nM | IC50 (Btk kinase): < 100 nM
